Marks after values point to notes of the source that are not given here.
Assays:
[1] = tested on: Capsella bursa pastoris; experiment: Greenhouse herbicidal effect in weed control ex. 6.2, 2- to 3-leaves stage; format: in vivo
Source text: (§1) That means, when applying the combinations according to the invention, herbicidal effects are observed on a harmful plant species which exceed the formal total of the effects of the herbicides present when these are applied by themselves. Alternatively, it is observed in some cases that a lower application rate is required for the herbicide combination in order to achieve the same effect on a harmful plant species in comparison with the individual products.
(§2) When the data observed already exceed the formal total (=E^A) of the data in the experiments with individual applications, they likewise exceed the expected value according to Colby, which is calculated using the formula below and is likewise regarded as an indication of synergism (cf. S. R. Colby; in Weeds 15 (1967) pp. 20 to 22): E=A+B−(A·B/100)
(§3) In this formula: • A=action of active compound (A) in % at an application rate of a g of AS/ha; • B=action of active compound (B) in % at an application rate of b g of AS/ha; • E=expected value of the action of the combination (A)+(B) in % at the combined application rate a+b g of AS/ha.
(§4) The data observed in the experiments show, at suitably low dosages, an action of the combinations which exceeds the expected values according to Colby (=E^C).

[2] = tested on: monocotyledonous and dicotyledonous weed plants; experiment: Field trial ex. 7.1, weed control in pre-emergence application, 12 DAT (Tables 38, 39); format: in vivo
Protocol: as §2
Seeds or rhizome pieces of monocotyledonous and dicotyledonous weed plants were placed in the field in sandy loam soil and covered with soil. […] 12 days after application (12 DAT), the herbicidal effect on the developed weed plants was visually evaluated as percent (%) herbicidal effect compared to untreated control plants.

[3] = tested on: monocotyledonous and dicotyledonous weed plants; experiment: Field trial ex. 7.2, weed control in post-emergence application (Table 40); format: in vivo; conditions: 2-leaves stage, 12 DAT
Protocol: as §2, §3
(§5) Seeds or rhizome pieces of monocotyledonous and dicotyledonous weed plants and specific warm season turf grasses were placed in the field in sandy loam soil, covered with soil and grown until the plants had reached the leaves stage indicated in the tables. […] The herbicidal effect was visually evaluated as percent (%) herbicidal effect compared to untreated control plants. The results are summarized in Table 40 below and show a synergistic increase in herbicidal effect of the mixtures of active ingredients and a good safety of the turf grass.

[4] = tested on: specific warm season turf grasses; experiment: Field trial ex. 7.2, turf grass safety in post-emergence application (Table 40); format: in vivo
Source text: as §5

[5] = tested on: weed plants; experiment: Greenhouse herbicidal effect in weed control ex. 6.2 (Tables 34 to 37); format: in vivo; conditions: post-emergence; for Herbicidal effect (%) 7 DAT on Trifolium pratense: 3-leaves stage
Protocol: as §2

[6] = tested on: Cynodon dactylon; experiment: Greenhouse selectivity testing ex. 6.1, turf grass plants in 1-leaf stage, % injury
Protocol: Turf grass plants were grown in sandy loam soil in the greenhouse under good growing conditions up to the 1-leaf stage. In parallel tests, a formulation (water-dispersable powder) containing a mixture of the compounds no. […] The turf grass plants were further kept under good growing conditions. 7 days after application the selectivity was visually evaluated as percent (%) injury compared to untreated control plants.

[7] = tested on: Taraxacum officinalis; experiment: Greenhouse herbicidal effect in weed control ex. 6.2, 1- to 2-leaves stage; format: in vivo
Source text: as §1, §2, §3, §4

[8] = Cynodon dactylon, in vivo, 7 days after application

SMILES: N#Cc1cc(Br)c(O)c(Br)c1 [Bromoxynil]
- Herbicidal effect (%) 7 DAT on Capsella bursa pastoris ([1]; 100 g a.i./ha): 30%

SMILES: CCOC(=O)C(Cl)Cc1cc(-n2nc(C)n(C(F)F)c2=O)c(F)cc1Cl (stereo not drawn) [Carfentrazone-ethyl]
- Herbicidal effect (%) 12 DAT on Brachiaria decumbens ([2]; Table 39, field, 15 g a.i./ha): 0%
- Herbicidal effect (%) on Commelina benghalensis ([3]; 15 g a.i./ha): 59%
- Herbicidal effect (%) on Paspalum notatum (warm season turf grass) ([4]; field, post-emergence, 3-leaves stage, 15 g a.i./ha, 7 DAT): 0%
- Herbicidal effect (%) 7 DAT on Trifolium pratense ([5]; 8 g a.i./ha): 0%

SMILES: CCOc1ccccc1OS(=O)(=O)NC(=O)Nc1nc(OC)cc(OC)n1 [Ethoxysulfuron]
- Herbicidal effect (%) 7 DAT on Capsella bursa pastoris ([1]; 20 g a.i./ha): 50%
- Herbicidal effect (%) 12 DAT on Brachiaria decumbens ([2]; Table 38, field, 30 g a.i./ha): 0%
- Selectivity evaluation (% injury) 7 DAT on Cynodon dactylon [6, 8]: 0%

SMILES: CCOC(=O)[C@@H](C)Oc1ccc(Oc2nc3ccc(Cl)cc3o2)cc1 [Fenoxaprop-P-ethyl]
- Herbicidal effect (%) 12 DAT on Brachiaria decumbens ([2]; Table 39, field, 60 g a.i./ha): 0%
- Herbicidal effect (%) 7 DAT on Trifolium pratense ([5]; 45 g a.i./ha): 0%

SMILES: Nc1c(Cl)c(F)nc(OCC(=O)O)c1Cl [Fluroxypyr]
- Herbicidal effect (%) 7 DAT on Capsella bursa pastoris ([1]; 100 g a.i./ha): 60%
- Selectivity evaluation (% injury) 7 DAT on Cynodon dactylon [6, 8]: 0%

SMILES: O=C(O)CNCP(=O)([O-])O.[K+] [Glyphosate-potassium salt (K salt)]
- Herbicidal effect (%) 12 DAT on Brachiaria decumbens ([2]; Table 39, field, 620 g a.i./ha): 0%
- Herbicidal effect (%) 12 DAT on Brachiaria decumbens ([2]; Table 39, field, 840 g a.i./ha): 0%
- Herbicidal effect (%) on Commelina benghalensis ([3]; 620 g a.i./ha): 62%
- Herbicidal effect (%) on Commelina benghalensis ([3]; 840 g a.i./ha): 62%
- Herbicidal effect (%) on Paspalum notatum (warm season turf grass) ([4]; field, post-emergence, 3-leaves stage, 620 g a.i./ha, 7 DAT, turf grass used is not glyphosate tolerant): 23^5) %
- Herbicidal effect (%) on Paspalum notatum (warm season turf grass) ([4]; field, post-emergence, 3-leaves stage, 840 g a.i./ha, 7 DAT, turf grass used is not glyphosate tolerant): 40^5) %

SMILES: O=C(O)CNCP(=O)(O)O [Glyphosate]
- Herbicidal effect (%) 7 DAT on Taraxacum officinalis ([7]; 200 g a.i./ha): 40%

SMILES: Cc1cc(Cl)ccc1OCC(=O)O [MCPA, reference compound]
- Selectivity evaluation (% injury) 7 DAT on Cynodon dactylon ([6]; 500 g a.i./ha, 7 DAT, greenhouse, 1-leaf stage): 0%
- Herbicidal effect (%) 7 DAT on Trifolium pratense ([5]; 500 g a.i./ha): 30%

SMILES: Cc1cc(Cl)ccc1O[C@@H](C)C(=O)O [Mecoprop-P]
- Herbicidal effect (%) 7 DAT on Taraxacum officinalis ([7]; 500 g a.i./ha): 20%

SMILES: COC(=O)c1ccc(CNS(C)(=O)=O)cc1S(=O)(=O)NC(=O)Nc1nc(OC)cc(OC)n1 [Mesosulfuron-methyl, reference compound]
- Herbicidal effect (%) 12 DAT on Brachiaria decumbens ([2]; Table 38, field, 5 g a.i./ha): 0%
- Selectivity evaluation (% injury) 7 DAT on Cynodon dactylon ([6]; 5 g a.i./ha, 7 DAT, greenhouse, 1-leaf stage): 0%
- Herbicidal effect (%) on Commelina benghalensis ([3]; 5 g a.i./ha): 47%
- Herbicidal effect (%) on Paspalum notatum (warm season turf grass) ([4]; in vivo): 0%

SMILES: COc1cc(OC)n2nc(S(=O)(=O)Nc3c(Cl)ccc(C)c3Cl)nc2n1 [Metosulam]
- Herbicidal effect (%) 7 DAT on Taraxacum officinalis ([7]; 10 g a.i./ha): 10%
- Selectivity evaluation (% injury) 7 DAT on Cynodon dactylon [6, 8]: 0%

SMILES: COC(=O)c1ccccc1S(=O)(=O)NC(=O)Nc1nc(C)nc(OC)n1 [Metsulfuron-methyl]
- Herbicidal effect (%) 7 DAT on Trifolium pratense ([5]; 5 g a.i./ha): 30%

SMILES: Nc1c(Cl)c(Cl)nc(C(=O)O)c1Cl [Picloram, reference compound]
- Selectivity evaluation (% injury) 7 DAT on Cynodon dactylon ([6]; 300 g a.i./ha, 7 DAT, greenhouse, 1-leaf stage): 0%
- Herbicidal effect (%) 7 DAT on Echinocloa crus-galli ([5]; 3- to 4-leaves stage, 300 g a.i./ha): 30%

SMILES: CCS(=O)(=O)c1cccnc1S(=O)(=O)NC(=O)Nc1nc(OC)cc(OC)n1 [Rimsulfuron, reference compound]
- Selectivity evaluation (% injury) 7 DAT on Cynodon dactylon [6, 8]: 10%
- Herbicidal effect (%) 7 DAT on Trifolium pratense ([5]; 5 g a.i./ha): 40%
